Measured values published in patent US20250051327A1, “MALT-1 MODULATORS” (EXSCIENTIA AI LIMITED, priority 2020, published 2025).
Read-outs that look alike come from different tables or passages of the source.

Tests used:
[1] = tested on: IL-2 secretion by human effector memory T cells (TEM); assay: Effector memory T cells IL-2 release assay; format: cell-based; conditions: human CD4+ effector memory T cells, CD3/CD28 bead stimulation, 24 h, read-out: CD4TC IL2 IC50
In short: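 Human CD4+ effector memory T cells from healthy-donor buffy coats were stimulated with anti-CD3/CD28 Dynabeads and exposed to 10 semi-log compound doses (0.1% DMSO) for 24 h at 37 °C. Supernatant IL-2 was measured by HTRF, and IC50 came from a 4-parameter logistic fit to maximal IL-2. Viability was checked by flow cytometry.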

[2] = target: Recombinant human MALT-1 (amino acids 340-824) (Homo sapiens (Human), UniProt Q9UDY8); assay: MALT-1 inhibition assay (fluorogenic substrate Ac-LRSR-Rh110-DP); format: biochemical; conditions: recombinant human MALT-1, substrate Ac-LRSR-Rh110-DP
In short: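 Reactions were started with fluorogenic substrate Ac-LRSR-Rh110-DP (10 μM final) against 3 nM enzyme and kept dark at 25° C for 60 minutes. IC50 values came from 4-parameter logistic fits of percent inhibition calculated from relative fluorescence units.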

Recombinant human MALT-1 (amino acids 340-824), sequence (Q9UDY8 340-824): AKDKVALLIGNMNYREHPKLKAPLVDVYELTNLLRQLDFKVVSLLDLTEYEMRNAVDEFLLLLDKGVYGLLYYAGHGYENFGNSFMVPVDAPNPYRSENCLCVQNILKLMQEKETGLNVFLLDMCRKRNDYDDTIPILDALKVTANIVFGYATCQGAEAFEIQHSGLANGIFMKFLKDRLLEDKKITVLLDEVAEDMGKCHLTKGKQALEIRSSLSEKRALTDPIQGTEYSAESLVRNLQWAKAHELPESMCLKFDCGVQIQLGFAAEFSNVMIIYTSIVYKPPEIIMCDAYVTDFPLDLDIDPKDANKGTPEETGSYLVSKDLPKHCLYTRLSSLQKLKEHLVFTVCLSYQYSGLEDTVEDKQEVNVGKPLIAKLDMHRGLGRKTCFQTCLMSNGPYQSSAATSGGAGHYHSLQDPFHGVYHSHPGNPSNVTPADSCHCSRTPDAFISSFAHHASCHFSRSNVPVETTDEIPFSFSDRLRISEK

| SMILES | IC50 ([1]; T-cell) [µM] | IC50 [2] [µM] | IC50 [1] [µM] |
| --- | --- | --- | --- |
| CN1C[C@@H](C(=O)N(C)[C@@H](c2ccc(N3CCCc4c3cnc3cc(Cl)nn43)cc2)C(F)(F)F)CC1=O (relative stereo) [CPD0073557, (3rel-S)-N-[(1S)-1-(4-{4-chloro-2,3,7,10-tetraazatricyclo[7.4.0.0^2,6]trideca-1(9),3,5,7-tetraen-10-yl}phenyl)-2,2,2-trifluoroethyl]-N,1-dimethyl-5-oxopyrrolidine-3-carboxamide] | 0.282 | 0.121 | – |
| CO[C@H](C)c1c(Nc2ccc([C@H](N(C)C(=O)C3CCS(=O)(=O)CC3)C(F)(F)F)cc2)cnn2cc(Cl)nc12 [CPD0072850] | 0.114 | 0.043 | – |
| CN([C@@H](c1ccc(N2CCCc3c2cnc2cc(Cl)nn32)cc1)C(F)(F)F)[S+]([O-])C(C)(C)C (stereo partly shown) [CPD0021661] | 1.47 | 0.302 | – |
| CN(C(=O)C1CCS(=N)(=O)CC1)[C@@H](c1ccc(N2CCCc3c2cnc2cc(Cl)nn32)cc1)C(F)(F)F (stereo partly shown) [CPD0021810] | 0.194 | 0.063 | – |
| CN(C(=O)[C@@H]1CCC(=O)NC1)[C@@H](c1ccc(N2CCCc3c2cnc2cc(Cl)nn32)cc1)C(F)(F)F (relative stereo) [CPD0073568, (3rel-R)-N-[(1S)-1-(4-{4-chloro-2,3,7,10-tetraazatricyclo[7.4.0.0^2,6]trideca-1(9),3,5,7-tetraen-10-yl}phenyl)-2,2,2-trifluoroethyl]-N-methyl-6-oxopiperidine-3-carboxamide] | 0.131 | 0.038 | – |
| COc1cc([C@H](N(C)C(=O)C2CCS(=O)(=O)CC2)C(F)(F)F)ccc1N1CCCc2c1cnc1cc(Cl)nn21 [CPD0073040, N-[(1S)-1-(4-{4-chloro-2,3,7,10-tetraazatricyclo[7.4.0.0^2,6]trideca-1(9),3,5,7-tetraen-10-yl}-3-methoxyphenyl)-2,2,2-trifluoroethyl]-N-methyl-1,1-dioxo-1λ^6-thiane-4-carboxamide] | 0.642 | 0.368 | – |
| Cc1cn2ncc(Nc3ccc([C@H](N(C)C(=O)C4CCS(=O)(=O)CC4)C(F)(F)F)cc3)cc2n1 [CPD0018617, N-methyl-1,1-dioxo-N-[(1S)-2,2,2-trifluoro-1-[4-({2-methylimidazo[1,2-b]pyridazin-7-yl}amino)phenyl]ethyl]-1λ^6-thiane-4-carboxamide] | 0.386 | 0.598 | – |
| CN(C(=O)[C@H]1CC[S@+]([O-])CC1)[C@@H](c1ccc(N2CCC(C)(C)c3c2cnc2cc(F)nn32)cc1)C(F)(F)F (relative stereo) [CPD0072781, (1rel-r,4rel-r)-N-methyl-1-oxo-N-[(1S)-2,2,2-trifluoro-1-(4-{4-fluoro-13,13-dimethyl-2,3,7,10-tetraazatricyclo [7.4.0.02,6]trideca-1(9),3,5,7-tetraen-10-yl}phenyl)ethyl]-1/4-thiane-4-carboxamide] | 0.075 | 0.06 | – |
| CC(=O)N1CCC[C@@H](C(=O)N(C)[C@@H](c2ccc(N3CCCc4c3cnc3cc(Cl)nn43)cc2)C(F)(F)F)C1 (relative stereo) [CPD0073499, (3rel-R)-1-acetyl-N-[(1S)-1-(4-{4-chloro-2,3,7,10-tetraazatricyclo[7.4.0.0^2,6]trideca-1(9),3,5,7-tetraen-10-yl}phenyl)-2,2,2-trifluoroethyl]-N-methylpiperidine-3-carboxamide] | 0.175 | 0.127 | – |
| CN(C(=O)CC1CCS(=O)(=O)CC1)[C@@H](c1ccc(N2CCCc3c2cnc2cc(Cl)nn32)cc1)C(F)(F)F [CPD0073088] | 0.142 | 0.091 | – |
| COCC(=O)N1CC[C@@H](C(=O)N(C)[C@@H](c2ccc(N3CCCc4c3cnc3cc(Cl)nn43)cc2)C(F)(F)F)C1 (relative stereo) [CPD0075875, (3rel-S)-N-[(1S)-1-[4-(4-chloro-2,3,7,10-tetrazatricyclo[7.4.0.0^2,6]trideca-1(9),3,5,7-tetraen-10-yl)phenyl]-2,2,2-trifluoro-ethyl]-1-(2-methoxyacetyl)-N-methyl-pyrrolidine-3-carboxamide] | 0.116 | 0.085 | – |
| O=C(Nc1cnc(-n2nccn2)c(Cl)c1)c1cnn(-c2cccc3ncccc23)c1NCCCCl [CPD0019183] | 10 | 0.464 | – |
| COc1ccccc1CC(=O)N(C)[C@@H](c1ccc(N2CCCc3c2cnc2cc(Cl)nn32)cc1)C(F)(F)F [CPD0021561, N-[(1S)-1-(4-{4-chloro-2,3,7,10-tetraazatricyclo[7.4.0.0^2,6]trideca-1(9),3,5,7-tetraen-10-yl}phenyl)-2,2,2-trifluoroethyl]-2-(2-methoxyphenyl)-N-methylacetamide] | 0.9 | 0.063 | – |
| CN(C(=O)C1CCS(=O)(=O)CC1)[C@@H](c1ccc(N2CCCc3c2cnc2cc(Cl)nn32)cc1)C(F)F [CPD0073041, N-[(1S)-1-(4-{4-chloro-2,3,7,10-tetraazatricyclo[7.4.0.0^2,6]trideca-1(9),3,5,7-tetraen-10-yl}phenyl)-2,2-difluoroethyl]-N-methyl-1,1-dioxo-1λ^6-thiane-4-carboxamide] | 5.78 | 0.432 | – |
| CN(C(=O)[C@H]1C[C@@H](S(C)(=O)=O)C1)[C@@H](c1ccc(N2CCCc3c2cnc2cc(Cl)nn32)cc1)C(F)(F)F [CPD0073502, cis-N-[(1S)-1-(4-{4-chloro-2,3,7,10-tetraazatricyclo[7.4.0.0^2,6]trideca-1(9),3,5,7-tetraen-10-yl}phenyl)-2,2,2-trifluoroethyl]-3-methanesulfonyl-N-methylcyclobutane-1-carboxamide] | 0.104 | 0.061 | – |
| CC1CCc2c(cnc3cc(Cl)nn23)N1c1ccc([C@H](N(C)C(=O)C2CCS(=O)(=O)CC2)C(F)(F)F)cc1 (stereo partly drawn) [CPD0072805, N-[(1S)-1-{4-[(11rel-S)-4-chloro-11-methyl-2,3,7,10-tetraazatricyclo[7.4.0.0^2,6]trideca-1(9),3,5,7-tetraen-10-yl]phenyl}-2,2,2-trifluoroethyl]-N-methyl-1,1-dioxo-1λ^6-thiane-4-carboxamide] | – | 0.172 | 1.02 |
| CN(C(=O)[C@H]1CC12CCS(=O)(=O)CC2)[C@@H](c1ccc(N2CCCc3c2cnc2cc(Cl)nn32)cc1)C(F)(F)F (relative stereo) [CPD0073922, (1rel-S)-N-[(1S)-1-(4-{4-chloro-2,3,7,10-tetraazatricyclo[7.4.0.0^2,6]trideca-1(9),3,5,7-tetraen-10-yl}phenyl)-2,2,2-trifluoroethyl]-N-methyl-6,6-dioxo-6λ^6-thiaspiro[2.5]octane-1-carboxamide] | 0.994 | 0.173 | – |
| CN(C(=O)[C@@H]1CCN(S(C)(=O)=O)C1)[C@@H](c1ccc(N2CCCc3c2cnc2cc(Cl)nn32)cc1)C(F)(F)F (relative stereo) [CPD0073144, (3rel-R)-N-[(1S)-1-(4-{4-chloro-2,3,7,10-tetraazatricyclo[7.4.0.0^2,6]trideca-1(9),3,5,7-tetraen-10-yl}phenyl)-2,2,2-trifluoroethyl]-1-methanesulfonyl-N-methylpyrrolidine-3-carboxamide] | 0.116 | 0.066 | – |
| CN(C(=O)[C@H]1CC[S@+]([O-])CC1)[C@@H](c1ccc(N2CCCc3c2cnc2cc(Cl)nn32)cc1)C(F)(F)F (relative stereo) [CPD0022137, (1rel-r,4rel-r)-N-[(1S)-1-(4-{4-chloro-2,3,7,10-tetraazatricyclo[7.4.0.0^2,6]trideca-1(9),3,5,7-tetraen-10-yl}phenyl)-2,2,2-trifluoroethyl]-N-methyl-1-oxo-1λ^4-thiane-4-carboxamide] | 0.127 | 0.073 | – |
| CN(C(=O)C1CC1)[C@@H](c1ccc(N2CCCc3c2cnc2cc(Cl)nn32)cc1)C(F)(F)F [CPD0019354, N-[(1S)-1-(4-{4-chloro-2,3,7,10-tetraazatricyclo[7.4.0.0^2,6]trideca-1(9),3,5,7-tetraen-10-yl}phenyl)-2,2,2-trifluoroethyl]-N-methylcyclopropanecarboxamide] | 0.083 | 0.164 | – |
| CN(C(=O)c1nn(C)cc1Cl)[C@@H](c1ccc(N2CCCc3c2cnc2cc(Cl)nn32)cc1)C(F)(F)F [CPD0019352, 4-chloro-N-[(1S)-1-(4-{4-chloro-2,3,7,10-tetraazatricyclo[7.4.0.0^2,6]trideca-1(9),3,5,7-tetraen-10-yl}phenyl)-2,2,2-trifluoroethyl]-N,1-dimethyl-1H-pyrazole-3-carboxamide] | 0.417 | 0.196 | – |
| CN(C(=O)[C@H]1CC[S@](=N)(=O)CC1)[C@@H](c1ccc(N2CCC3(CC3)c3c2cnc2cc(F)nn32)cc1)C(F)(F)F (relative stereo) [CPD0072853, (1rel-r,4rel-r)-1-imino-N-methyl-1-oxo-N-[(1S)-2,2,2-trifluoro-1-(4-{4′-fluoro-2′,3′,7′,10′-tetraazaspiro[cyclopropane-1,13′-tricyclo[7.4.0.0^2,6]tridecane]-1′(9′),3′,5′,7′-tetraen-10′-yl}phenyl)ethyl]-1λ^6-thiane-4-carboxamide] | 0.062 | 0.023 | – |
| CN(C)CC(=O)N1CC[C@H](C(=O)N(C)[C@@H](c2ccc(N3CCCc4c3cnc3cc(Cl)nn43)cc2)C(F)(F)F)C1 (relative stereo) [CPD0075876, (3rel-R)-N-[(1S)-1-[4-(4-chloro-2,3,7,10-tetrazatricyclo[7.4.0.0^2,6]trideca-1(9),3,5,7-tetraen-10-yl)phenyl]-2,2,2-trifluoro-ethyl]-1-[2-(dimethylamino)acetyl]-N-methyl-pyrrolidine-3-carboxamide] | 0.207 | 0.138 | – |
